# According to patent US20260217652A1, “PHENYL-SUBSTITUTED HETEROARYL COMPOUND AND PHARMACEUTICAL COMPOSITION COMPRISING SAME, PREPARATION METHOD THEREFOR AND USE THEREOF” (SHANGHAI MEIYUE BIOTECH DEVELOPMENT CO., LTD., priority 2023, published 2026):
# pIC50: −log10 of the molar value. Like-named read-outs stand apart in the source and are kept apart here.
# Experiments:
# p38 MAPK/MK2 = target: T1, p38 MAPK/MK2 (Homo sapiens, UniProt Q16539); test: In vitro activity assay of p38 MAPK/MK2 (Z-LYTE kinase assay kit); assay type: biochemical; settings: active p38α, inactive MK2, Ser/Thr 4; 1-hour reaction at 20° C.
# T1 construct: purchased Carna (p38α); Abcam (MK2) 04-152; 79910
# T1 sequence (Q16539 whole entry): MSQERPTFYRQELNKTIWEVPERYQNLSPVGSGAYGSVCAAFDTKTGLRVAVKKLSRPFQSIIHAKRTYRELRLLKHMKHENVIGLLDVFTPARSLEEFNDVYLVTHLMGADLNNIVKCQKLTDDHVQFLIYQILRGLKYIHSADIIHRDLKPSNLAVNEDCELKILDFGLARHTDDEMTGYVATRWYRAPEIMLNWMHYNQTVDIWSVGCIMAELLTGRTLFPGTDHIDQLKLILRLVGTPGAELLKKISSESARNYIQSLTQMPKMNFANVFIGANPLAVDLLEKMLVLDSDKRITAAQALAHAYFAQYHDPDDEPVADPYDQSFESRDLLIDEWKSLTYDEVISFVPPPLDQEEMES
# T1 sequence (P49137 whole entry partner): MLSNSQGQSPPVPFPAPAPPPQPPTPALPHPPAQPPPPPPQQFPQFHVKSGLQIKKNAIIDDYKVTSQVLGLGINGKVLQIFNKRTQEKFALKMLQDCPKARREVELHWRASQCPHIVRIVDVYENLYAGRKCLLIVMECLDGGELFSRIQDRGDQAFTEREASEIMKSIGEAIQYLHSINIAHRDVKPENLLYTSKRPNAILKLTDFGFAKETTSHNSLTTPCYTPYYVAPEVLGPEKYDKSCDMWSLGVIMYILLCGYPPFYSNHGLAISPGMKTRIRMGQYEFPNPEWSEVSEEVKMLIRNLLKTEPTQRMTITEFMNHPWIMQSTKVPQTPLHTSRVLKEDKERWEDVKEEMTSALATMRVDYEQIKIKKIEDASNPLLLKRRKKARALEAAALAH
# Procedure: (§1) The inhibitory effect of the compound on p38 MAPK/MK2 was evaluated using the Z-LYTE kinase assay kit (Thermo, PV3177). The test compound was dissolved in DMSO to obtain a 10 mM stock solution and stored at −20° C. for future use. The initial concentration of the compound was […], with 1% DMSO, 5-fold serial dilution, 8 concentrations, and duplicate wells. […] After a 1-hour reaction at 20° C., Development Reagent A diluted 2048-fold was added to each well, followed by incubation at room temperature for 1 hour. The reaction was terminated by adding 5 μL of stop buffer, and the plate was read using a microplate reader (Ex. 400 nm, Em. 445 nm; Ex. 400 nm, Em. 520 nm). The concentration-effect curve was fitted using GraphPad Prism 8 software, and the compound concentration resulting in 50% inhibition, IC50, was calculated.
# p38 MAPK/MK5 = target: T2, p38 MAPK/MK5 (Homo sapiens, UniProt Q16539); test: In vitro activity assay of p38 MAPK/MK5 (Z-LYTE kinase assay kit); assay type: biochemical; settings: active p38α, inactive MK5, Ser/Thr 4; 4-hour reaction at 20° C.
# T2 construct: purchased Carna (p38α); Abcam (MK5) 04-152; 217826
# T2 sequence (Q16539 whole entry): as the sequence (Q16539 whole entry) above
# Procedure: as §1, with “MAPK/MK5” for “MAPK/MK2”, “4-hour” for “1-hour”, “µL” for “μL”
# p38 MAPK/ATF2 = target: T3, p38 MAPK/ATF2 (Homo sapiens, UniProt Q16539); test: In vitro activity assay of p38 MAPK/ATF2 (HTRF); assay type: biochemical; settings: p38α, Human ATF2 Protein, ATP; 35 min at 20° C.
# T3 construct: purchased Carna Biosciences (p38α); Sino Biological (ATF2) 04-152; 11599-H20B
# Procedure: The inhibitory effect of the compound on p38a-catalyzed ATF2 was evaluated by the HTRF method. The test compound was dissolved in DMSO to obtain a 10 mM stock solution and stored at −20° C. for future use. The initial concentration of the compound was 10 μM, with 0.25% DMSO, 5-fold serial dilution, 8 concentrations, and duplicate wells. The reaction buffer, consisting of 40 mM Tris pH 7.5, 20 mM MgCl2, 0.1 mg/mL BSA, and 50 μM DTT, was used to prepare 3.5×p38α (MAPK14, Carna Biosciences, 04-152) protein working solution, 3.5×Human ATF2 Protein (Sino Biological, 11599-H20B) working solution, and 3.5×ATP working solution. The reaction was terminated with 10 mM EDTA. The final 14 μL reaction system was performed in a 96-well plate (cisbio, 66PL96025), containing 0.29 ng/μL p38a, […] Human ATF2 Protein, and 25 µM ATP. After reacting at 20° C. for 35 min, the pre-prepared antibody solution (cibio, 63ADK015PEG, Phospho-ATF2 Eu Cryptate antibody, Phospho-ATF2 d2 antibody, diluted 40-fold with Detection buffer) was added to each well and incubated overnight at room temperature. The samples were then measured using a microplate reader (HTRF compatible reader). The concentration-effect curve was fitted using GraphPad Prism 8 software, and the compound concentration resulting in 50% inhibition, IC50, was calculated.
# [1] = test system: TNF-α in human PBMC cells; test: In vitro TNF-α activity assay in human PBMC cell supernatant (LPS, ELISA); assay type: cell-based; settings: LPS 100 ng/mL, read-out: p38 MAPK/TNF-α IC50
# Procedure: The inhibitory effect of the compound on TNF-α in the supernatant of human PBMC cells was evaluated using an ELISA detection kit (Beyotime, PI518). The test compound was dissolved in DMSO to obtain a 10 mM stock solution and stored at −20° C. for future use. The initial concentration of the compound was […], followed by 5-fold serial dilution to obtain 6 concentrations. Cells were plated in duplicate, and ELISA was performed in single wells. The final concentration of DMSO was 0.4%. Alternatively, the initial concentration of the compound, dilution factor, number of concentration gradients, and replicates could be adjusted based on the specific screening conditions.
# Fresh human peripheral blood mononuclear cells (PBMCs) (Sailybio) were seeded at a density of 2×10^5 cells per well in a 96-well plate (Corning, 3599), with each well containing 100 μL of RPMI-1640 (Gibco #A1049101)+10% FBS (Gibco, 10099141C), and incubated overnight at 37° C. under 5% CO2. Test compounds were added to the 96-well culture plate at a volume of 25 μL per well. After 1 hour, 5 μL of LPS was added to achieve a final concentration of 100 ng/mL. No LPS and compound were added to the negative control wells, and no compound was added to the positive control wells. The mixture was further incubated for 24 hours at 37° C. under 5% CO2. Subsequently, the cell culture supernatant was collected by centrifugation at 500 rcf for 8 minutes. The concentration of TNF-α was measured according to the operation manual of the ELISA kit. The concentration-effect curve was fitted using GraphPad Prism 8 software, and the compound concentration resulting in 50% inhibition, IC50, was calculated.
# [2] = Pharmacokinetic evaluation in mice; assay type: in vivo; settings: mouse, plasma; for AUC(0-t): read-out: Area under curve AUC0-24 h; for clearance: read-out: Clearance CL (converted); for half-life: read-out: Half-life T1/2 (converted); for C0: read-out: Initial concentration C0; for Vd: read-out: Volume of distribution Vd; for bioavailability: read-out: Bioavailability F %; for Cmax: read-out: Maximum concentration Cmax
# Procedure: The compound was weighed and dissolved in a mixed solvent of DMAC: Solutol: PBS (1:1:8. After intravenous/gastric administration to mice, whole blood ([…]) was collected at 0.083, 0.25, 0.5, 1, 2, 4, 7, and 24 hours. The samples were anticoagulated with EDTA-K2, immediately centrifuged at 4000 rpm for 5 minutes at 4° C., and the supernatant was frozen in a −80° C. refrigerator. Plasma sample processing: The samples were precipitated with an internal standard-containing CH3CN precipitant, followed by centrifugation at 12700 rpm for 10 min. The supernatant was collected and analyzed by LC-MS/MS (AB Triple Quard 5500) to obtain the plasma drug concentration. The parameters were calculated using a non-compartmental model in Winnolin version 8.1.
# [3] = In vitro liver microsome stability, mouse; assay type: in vitro ADME; settings: liver microsomes, 0.5 mg/mL microsomes, 1 μM compound, NADPH, 37° C., read-out: Mouse liver microsomes Half-life T1/2
# Procedure: (§2) The reference compound used in this experiment was Ketanserin, and the final concentration of microsomes in the experimental system was 0.5 mg/mL. The PBS buffer was a 50 mM K2HPO4 buffer. The concentration of the test compound was 1 μM. The microsomes were added to PBS, and the control/test compounds were respectively added to the corresponding reaction systems, mixed thoroughly, and pre-incubated in a 37° C. water bath for 5 minutes. The reaction was initiated by adding 20 mM NADPH solution under 37° C. water bath conditions (for the No NADPH samples, an equal volume of PBS solution was used as a substitute for the 20 mM NADPH solution). At the reaction time points of 0 min, 10 min, 30 mun, 60 min, and 90 min, 30 μL of reaction samples were taken from each reaction system (for the No NADPH samples, sampling was performed at 0 min and 90 min), and the reaction was immediately terminated by adding 300 μL of the internal standard acetonitrile solution. After centrifugation at 4000 rpm, the supernatant was taken and mixed thoroughly with an equal volume of pure water. The samples at each time point were analyzed by LC-MS/MS (AB Triple Quard 5500) to determine the compound content, and the T1/2 was calculated.
# [4] = In vitro liver microsome stability, rat; assay type: in vitro ADME; settings: liver microsomes, 0.5 mg/mL microsomes, 1 μM compound, NADPH, 37° C., read-out: Rat liver microsomes Half-life T1/2
# Procedure: as §2
# [5] = In vitro liver microsome stability, human; assay type: in vitro ADME; settings: liver microsomes, 0.5 mg/mL microsomes, 1 μM compound, NADPH, 37° C., read-out: Human liver microsomes Half-life T1/2
# Procedure: as §2
# [6] = intravenous injection group 1 mg/kg
# [7] = po, intragastric administration group 5 mg/kg
pIC50 (p38 MAPK/MK2),pIC50 (p38 MAPK/MK5),pIC50 (p38 MAPK/ATF2),"AUC(0-t) [2, 6] [ng·h/mL]","clearance [2, 6] [mL/min/kg]","half-life [2, 6] [h]","C0 [2, 6] [ng/mL]","Vd [2, 6] [L/kg]","AUC(0-t) [2, 7] [ng·h/mL]","bioavailability [2, 7] [%]","half-life [2, 7] [h]","Cmax [2, 7] [ng/mL]",half-life at 1 μM [3] [h],half-life at 1 μM [4] [h],half-life at 1 μM [5] [h],Structure (SMILES),"pIC50 ([1]; Homo sapiens, PBMC, 24 h)",pIC50 ([1]; 24 hours)
9.29,5.78,5.44,842,21.1,0.35,1790,0.49,2350,57.9,1.54,1610,–,–,–,"Cc1cnc(-c2cccc(C(=O)N(C)C)c2)c(F)c1-n1c(C)cc(OCc2ncc(F)cc2F)c(Cl)c1=O (single isomer, unassigned) [Compound 32-P1]",8.49,–
9.23,< 4.70,5.34,–,–,–,–,–,–,–,–,–,> 4.66,> 4.66,> 4.66,"Cc1cnc(-c2ccc(F)c([C@@](C)(O)CO)c2F)cc1-n1c(C)cc(OCc2ncc(F)cc2F)c(Cl)c1=O (single isomer, unassigned) [Compound 65-P4]",8.35,–
7.23,5.22,< 4.70,–,–,–,–,–,–,–,–,–,> 4.66,> 4.66,> 4.66,Cc1cnc(-c2cccc(C(=O)O)c2)cc1-n1c(C)cc(OCc2ncc(F)cc2F)c(Cl)c1=O [Compound 1],–,–
7.20,5.52,4.99,–,–,–,–,–,–,–,–,–,3.96,4.17,4.14,CNC(=O)c1cccc(-c2cc(-n3c(C)cc(OCc4ncc(F)cc4F)c(Cl)c3=O)c(C)cn2)c1 [Compound 2],7.05,–
7.66,< 5.00,–,–,–,–,–,–,–,–,–,–,–,–,–,Cc1cnc(-c2cccc(C(=O)N(C)C)c2)cc1-n1c(C)cc(OCc2ncc(F)cc2F)c(Cl)c1=O [Compound 3],–,–
7.30,5.18,< 4.70,–,–,–,–,–,–,–,–,–,2.93,> 4.66,> 4.66,Cc1cnc(-c2cccc(C(N)=O)c2)cc1-n1c(C)cc(OCc2ncc(F)cc2F)c(Cl)c1=O [Compound 4],7.01,–
8.31,–,5.94,1390,10.4,2.57,1450,1.83,6490,80.6,3.37,1380,> 4.66,> 4.66,> 4.66,Cc1cnc(-c2cccc(C(=O)O)c2)c(F)c1-n1c(C)cc(OCc2ncc(F)cc2F)c(Cl)c1=O [Compound 29-P1],–,–
9.80,5.25,–,1100,15.2,0.47,2410,0.41,2640,48,3.31,1570,–,–,–,Cc1cnc(-c2cccc(C(N)=O)c2)c(F)c1-n1c(C)cc(OCc2ncc(F)cc2F)c(Cl)c1=O [Compound 30-P1],8.06,–
8.44,5.20,–,–,–,–,–,–,–,–,–,–,–,–,–,Cc1cnc(-c2cccc(C(=O)N(C)C)c2)c(F)c1-n1c(C)cc(OCc2ncc(F)cc2F)c(Cl)c1=O [Compound 32],–,8.54
8.84,5.33,–,–,–,–,–,–,–,–,–,–,> 4.66,> 4.66,> 4.66,Cc1cnc(-c2cccc([C@@](C)(O)CO)c2F)cc1-n1c(C)cc(OCc2ncc(F)cc2F)c(Cl)c1=O [Compound 35-P1],8.72,–
9.15,5.35,–,–,–,–,–,–,–,–,–,–,–,–,–,Cc1cnc(-c2ccc(F)c([C@](C)(O)CO)c2)c(F)c1-n1c(C)cc(OCc2ncc(F)cc2F)c(Cl)c1=O [Compound 51-P2],–,–
